Reference: patent US20100167275A1, “Potassium channel mutants of the yeast Saccharomyces cerevisiae and their use for screening eukaryotic potassium channels” (sanofi-aventis Deutschland GmbH, priority 2000, published 2010)
Values joined by “and” are separate entries in the source; they are usually repeats but may differ in a detail not shown here. Identical values can stand only once. Like-named read-outs stand apart in the source and are kept apart here.

Assays:
[1] = tested on: Saccharomyces cerevisiae wild-type strain; format: cell-based
Description: (§1) FIG. 9: Growth of the Saccharomyces cerevisiae wild-type strain in DPM-HIS/-TRP 5 mM KCl medium in 96-well ELISA plates in the presence of 0.5 mM CsCl. The various inhibitors were employed at a final concentration of in each case 30 μM. To measure the cell density, a commercially available LacZ reporter system pYX232 by Ingenius (cat. No. MBV-032-10) was transformed into the yeast strains to be studied. Expression of the LacZ reporter gene was under the control of the constitutive Saccharomyces cerevisiae promotor TPI for the triose phosphate isomerase gene. The LacZ enzyme activity was measured via detecting the luminescence after 24 hours' growth (density of the starter culture: 0.01 OD620) using a commercially available assay system by TROPIX.
The values correspond to the average of in each case 4 measurements±SD. The two different assays were carried out independently of each other on two different days.
(§2) All substances, dissolved in DMSO, were employed in a final concentration of 30 μM. As a control, cells were measured with the same final concentration of 0.5% DMSO without substance, without DMSO addition or without substance.

[2] = biological target: human potassium channel HERG1 (Homo sapiens, UniProt Q12809)
Description: FIG. 7: Expression of the human potassium channel HERG1 in the triple mutant Δtrk1Δtrk2Δtok1 in DPM-HIS/-TRP 5 mM KCl medium in 96-well ELISA plates in the presence of 0.5 mM CsCl as activator.
as §1, with “The” for “FIG. 9: Growth of the Saccharomyces cerevisiae wild-type strain in DPM-HIS/-TRP 5 mM KCl medium in 96-well ELISA plates in the presence of 0.5 mM CsCl. The”, “TROPIX. The values correspond to the average of in each case 4 measurements±SD. The two different assays were carried out independently of each other on two different days.” for “TROPIX.”
FIG. 8: Expression of the human potassium channel HERG1 in the triple mutant Δtrk1Δtrk2Δtok1 in DPM-HIS 5 mM KCl medium in 96-well ELISA plates in the presence of 0.5 mM CsCl as activator.
The various inhibitors were employed at a final concentration of in each case 30 μM. The cell density was measured after 38 hours' growth (density of the starter culture: 0.03 OD620) via determination of the optical density at a wavelength of 620 nm. The values corresponded to the average of in each case 4 measurements±SD.
All growth assays in the triple mutant Δtrk1Δtrk2Δtok1 were carried out in growth medium DPM (defined potassium medium) at the pH and the potassium concentration stated in each case.
as §2

[3] = tested on: Saccharomyces cerevisiae wild-type strain; assay: Growth of wild-type strain in DPM medium with 5 mM or 80 mM KCl, OD 620 nm; format: cell-based; settings: 30 μM; for toxic effect on yeast cells (Saccharomyces cerevisiae): growth medium containing 80 mM KCl; for growth OD 620 nm, 5 mM KCl, measurement 1 / growth OD 620 nm, 5 mM KCl, measurement 2 / growth OD 620 nm, 5 mM KCl, measurement 3 / growth OD 620 nm, 5 mM KCl, measurement 4 / 5 mM KCl (average growth, OD 620 nm) / growth OD 620 nm, 80 mM KCl, measurement 1 / growth OD 620 nm, 80 mM KCl, measurement 2 / growth OD 620 nm, 80 mM KCl, measurement 3 / growth OD 620 nm, 80 mM KCl, measurement 4 / 80 mM KCl (average growth, OD 620 nm): wild-type cells, DPM, 24 hours growth, starting culture 0.01 OD; for 5 mM KCl (average growth, OD 620 nm) / 80 mM KCl (average growth, OD 620 nm): average of 4
Source text: However, the present results could not exclude that the inhibitory effect found for these substances can possibly also be attributed to an inhibition of other proteins which are essential for the growth of yeast cells. […]

[4] = 30 μM, wild-type cells, DPM -HIS/-TRP, 0.5 mM CsCl, 24 hours growth, TROPIX kit, ASSAY 1
[5] = 30 μM, wild-type cells, DPM -HIS/-TRP, 0.5 mM CsCl, 24 hours growth, TROPIX kit, ASSAY 1, mean of 4
[6] = 30 μM, wild-type cells, DPM -HIS/-TRP, 0.5 mM CsCl, 24 hours growth, TROPIX kit, ASSAY 2
[7] = 30 μM, wild-type cells, DPM -HIS/-TRP, 0.5 mM CsCl, 24 hours growth, TROPIX kit, ASSAY 2, mean of 4

Chain of human potassium channel HERG1 (Q12809 whole entry): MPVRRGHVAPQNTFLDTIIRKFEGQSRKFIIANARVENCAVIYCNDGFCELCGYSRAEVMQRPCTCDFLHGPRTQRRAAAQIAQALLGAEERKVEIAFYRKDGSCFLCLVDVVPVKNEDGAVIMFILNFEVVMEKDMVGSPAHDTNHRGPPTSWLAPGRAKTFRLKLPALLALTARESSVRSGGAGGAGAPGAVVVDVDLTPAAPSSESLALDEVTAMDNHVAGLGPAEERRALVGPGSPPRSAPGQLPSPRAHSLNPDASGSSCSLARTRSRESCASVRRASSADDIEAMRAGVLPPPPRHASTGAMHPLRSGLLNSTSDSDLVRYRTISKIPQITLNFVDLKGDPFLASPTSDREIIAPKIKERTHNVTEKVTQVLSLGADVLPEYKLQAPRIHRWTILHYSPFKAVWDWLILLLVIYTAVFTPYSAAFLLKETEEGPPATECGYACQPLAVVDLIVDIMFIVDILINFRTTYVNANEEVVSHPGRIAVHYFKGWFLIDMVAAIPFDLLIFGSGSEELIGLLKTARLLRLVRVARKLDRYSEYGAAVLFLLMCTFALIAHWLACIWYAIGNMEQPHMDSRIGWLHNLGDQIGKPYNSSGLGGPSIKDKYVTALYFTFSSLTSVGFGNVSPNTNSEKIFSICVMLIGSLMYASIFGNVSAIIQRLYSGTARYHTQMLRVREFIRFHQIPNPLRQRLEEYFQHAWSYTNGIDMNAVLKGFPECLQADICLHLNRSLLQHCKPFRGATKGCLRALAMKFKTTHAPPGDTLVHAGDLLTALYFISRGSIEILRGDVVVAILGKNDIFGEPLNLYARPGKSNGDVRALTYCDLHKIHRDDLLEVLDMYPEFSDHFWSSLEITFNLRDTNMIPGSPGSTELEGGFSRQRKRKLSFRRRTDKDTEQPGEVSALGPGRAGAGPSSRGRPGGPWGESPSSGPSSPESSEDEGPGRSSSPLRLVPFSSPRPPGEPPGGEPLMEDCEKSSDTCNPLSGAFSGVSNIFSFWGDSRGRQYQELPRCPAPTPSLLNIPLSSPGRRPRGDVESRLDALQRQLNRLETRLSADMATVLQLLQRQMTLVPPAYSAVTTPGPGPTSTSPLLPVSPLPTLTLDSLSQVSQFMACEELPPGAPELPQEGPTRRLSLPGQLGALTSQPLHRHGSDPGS

| SMILES | Exp. 1 (LacZ luminescence), ASSAY 1 [1, 4] | Exp. 2 (LacZ luminescence), ASSAY 1 [1, 4] | Exp. 3 (LacZ luminescence), ASSAY 1 [1, 4] | Exp. 4 (LacZ luminescence), ASSAY 1 [1, 4] | Mean growth (LacZ luminescence), ASSAY 1 [1, 5] | Exp. 1 (LacZ luminescence), ASSAY 2 [1, 6] | Exp. 2 (LacZ luminescence), ASSAY 2 [1, 6] | Exp. 3 (LacZ luminescence), ASSAY 2 [1, 6] | Exp. 4 (LacZ luminescence), ASSAY 2 [1, 6] | Mean growth (LacZ luminescence), ASSAY 2 [1, 7] | Exp. 1 (growth, OD620 nm) [2] | Exp. 2 (growth, OD620 nm) [2] | Exp. 3 (growth, OD620 nm) [2] | Exp. 4 (growth, OD620 nm) [2] | Mean growth (OD620 nm) [2] | complementation of the growth deficiency of the triple mutant by human HERG1 in the presence of the substance [2] | toxic effect on yeast cells (Saccharomyces cerevisiae) ([3]; FIG. 10) | growth OD 620 nm, 5 mM KCl, measurement 1 [3] | growth OD 620 nm, 5 mM KCl, measurement 2 [3] | growth OD 620 nm, 5 mM KCl, measurement 3 [3] | other results |
| --- | --- | --- | --- | --- | --- | --- | --- | --- | --- | --- | --- | --- | --- | --- | --- | --- | --- | --- | --- | --- | --- |
| CCOC(=O)N1CCC(=C2c3ccc(Cl)cc3CCc3cccnc32)CC1 [Loratadine, ethyl 4-(8-chloro-5,6-dihydro-11H-benzo[5,6]cyclohepta[1,2-b]pyridin-11-ylidene)-1-piperidinecarboxytate] | 4905 | 5141 | 1857 | 3266 | 3792.25 | 3553 | 1965 | 3590 | 2478 | 2896.5 |  |  |  |  |  |  |  |  |  |  |  |
| CC(C)(C)c1ccc(C(O)CCCN2CCC(C(O)(c3ccccc3)c3ccccc3)CC2)cc1 (stereo not drawn) [Terfenadine, α-(4-tert-butylphenyl)-4-(α-hydroxy-αphenylbenzyl)-1-piperidinebutanol] |  |  |  |  |  |  |  |  |  |  |  |  |  |  |  |  |  |  |  |  | Exp. 1 (LacZ luminescence), ASSAY 1 [1]: 4497; Exp. 1 (LacZ luminescence), ASSAY 2 [1]: 3439; Exp. 2 (LacZ luminescence), ASSAY 1 [1]: 4481; Exp. 2 (LacZ luminescence), ASSAY 2 [1]: 3795; Exp. 3 (LacZ luminescence), ASSAY 1 [1]: 5058; Exp. 3 (LacZ luminescence), ASSAY 2 [1]: 3698; Exp. 4 (LacZ luminescence), ASSAY 1 [1]: 5381; Exp. 4 (LacZ luminescence), ASSAY 2 [1]: 3388; Mean growth (LacZ luminescence), ASSAY 1 [1]: 4854.25; Mean growth (LacZ luminescence), ASSAY 2 [1]: 3580 |
| O=c1[nH]c2ccccc2n1C1CCN(CCCC(c2ccc(F)cc2)c2ccc(F)cc2)CC1 [Pimozide, 1-(4,4-bis(P-fluorophenyl)butyl)-4-(2-oxo-1-benzimidazolinyl)-piperidine] | 357.4 | 747.9 | 804.6 | 585.4 | 623.825 | 905 | 2176 | 496.5 | 573.4 | 1037.725 | 0.004 | 0.004 | 0.005 | 0.005 | 0.0045 | can no longer complement | no generally toxic effect | 0.904 | 0.823 | 0.305 | growth OD 620 nm, 5 mM KCl, measurement 4 [3]: 0.614; 5 mM KCl (average growth, OD 620 nm) [3]: 0.6615; growth OD 620 nm, 80 mM KCl, measurement 1 ([3]; 80 mM KCl): 3.673; growth OD 620 nm, 80 mM KCl, measurement 2 ([3]; 80 mM KCl): 3.505; growth OD 620 nm, 80 mM KCl, measurement 3 ([3]; 80 mM KCl): 3.46 and 3.48; growth OD 620 nm, 80 mM KCl, measurement 4 ([3]; 80 mM KCl): 3.441; 80 mM KCl (average growth, OD 620 nm) ([3]; 80 mM KCl): 3.5 and 3.52 |
| CN(C)CCOC(c1ccccc1)c1ccccc1 [Diphenhydramine] | 2806 | 3161 | 4178 | 4884 | 3757.25 | 3468 | 2980 | 3062 | 3581 | 3267.75 |  |  |  |  |  |  |  |  |  |  |  |
| O=C1Cc2cc(CCN3CCN(c4nsc5ccccc45)CC3)c(Cl)cc2N1 [Ziprasidone, 5-(2-[4-(1,2-benzisothiazol-3-yl)piperazino]-ethyl)-6-chloro-1,3-dihydro-2H-indol-2-one] | 55.32 | 70.29 | 70.3 | 77.18 | 68.2725 | 62.52 | 44.3 | 49.71 | 51.87 | 52.1 | 0.006 | 0.01 | 0.012 | 0.015 | 0.01075 | can no longer complement | has a toxic effect | 0.943 | 0.877 | 0.675 | specificity of inhibition of the human HERG1 channel (comparison with wild-type strain) [1]: rather unspecific inhibitors; effect on growth of yeast cells at higher potassium concentrations ([3]; 80 mM KCl, FIG. 10): inhibits the growth; growth OD 620 nm, 5 mM KCl, measurement 4 [3]: 0.701; 5 mM KCl (average growth, OD 620 nm) [3]: 0.799; growth OD 620 nm, 80 mM KCl, measurement 1 ([3]; 80 mM KCl): 0.836; growth OD 620 nm, 80 mM KCl, measurement 2 ([3]; 80 mM KCl): 0.681; growth OD 620 nm, 80 mM KCl, measurement 3 ([3]; 80 mM KCl): 0.717; growth OD 620 nm, 80 mM KCl, measurement 4 ([3]; 80 mM KCl): 0.606; 80 mM KCl (average growth, OD 620 nm) ([3]; 80 mM KCl): 0.7 and 0.71 |
| O=C1NCCN1CCN1CCC(c2cn(-c3ccc(F)cc3)c3ccc(Cl)cc23)CC1 [Sertindole, 1-(2-[4-[5-chloro-1-(4-fluorophenyl)-1H-indol-3-yl]-1-piperidinyl]ethyl)-2-imidazolidinone] | 4165 | 2099 | 4588 | 3069 | 3480.25 | 3992 | 3076 | 3972 | 2782 | 3455.5 |  |  |  |  |  |  |  |  |  |  | specificity of inhibition of the human HERG1 channel (comparison with wild-type strain) [1]: specific inhibitors |
